{"source": "ChEMBL document CHEMBL1131760", "about": "“Substrate-selective mechanisms in biocatalysis demonstrated with a versatile and efficient aldolase antibody” (Bioorg Med Chem Lett, 1999)", "key": {"[1]": {"test": "Michaelis constant (Km) was determined", "assay_type": "ADME"}, "[2]": {"test": "Catalytic constant from Lineweaver-Burke analysis for antibody catalyzed retrograde aldol reaction with the compound", "assay_type": "ADME"}}, "data": [{"smiles": "CC(=O)CC(O)/C=C/c1ccc([N+](=O)[O-])cc1", "note": "(configuration not stated)", "values": [{"measurement": "Km", "setting": "[1]", "value": 140, "unit": "µM"}, {"measurement": "k cat", "setting": "[2]", "value": 0.0013, "unit": "s⁻¹"}]}, {"smiles": "COc1ccc(/C=C/C(O)CC(C)=O)cc1", "note": "(configuration not stated)", "values": [{"measurement": "Km", "setting": "[1]", "value": 522, "unit": "µM"}, {"measurement": "k cat", "setting": "[2]", "value": 0.0067, "unit": "s⁻¹"}]}, {"smiles": "CC(=O)CC(O)/C=C/c1ccccc1", "note": "(configuration not stated)", "values": [{"measurement": "Km", "setting": "[1]", "value": 415, "unit": "µM"}, {"measurement": "k cat", "setting": "[2]", "value": 0.00145, "unit": "s⁻¹"}]}, {"smiles": "CC(=O)CC(O)/C=C/c1ccc(N(C)C)cc1", "note": "(configuration not stated)", "values": [{"measurement": "Km", "setting": "[1]", "value": 1250, "unit": "µM"}, {"measurement": "k cat", "setting": "[2]", "value": 0.042, "unit": "s⁻¹"}]}, {"smiles": "CC(=O)CC(O)/C=C/c1ccc(Cl)cc1", "note": "(configuration not stated)", "values": [{"measurement": "Km", "setting": "[1]", "value": 324, "unit": "µM"}, {"measurement": "k cat", "setting": "[2]", "value": 0.00282, "unit": "s⁻¹"}]}, {"smiles": "CC(=O)CC(O)/C=C/c1ccc(C(F)(F)F)cc1", "note": "(configuration not stated)", "values": [{"measurement": "Km", "setting": "[1]", "value": 239, "unit": "µM"}, {"measurement": "k cat", "setting": "[2]", "value": 0.00227, "unit": "s⁻¹"}]}]}
